The target in this assay is SGK1 (human) (UniProt O00141). The assay can be described thus: Flashplate.
SGK1 (human), sequence (O00141 whole entry, looked up): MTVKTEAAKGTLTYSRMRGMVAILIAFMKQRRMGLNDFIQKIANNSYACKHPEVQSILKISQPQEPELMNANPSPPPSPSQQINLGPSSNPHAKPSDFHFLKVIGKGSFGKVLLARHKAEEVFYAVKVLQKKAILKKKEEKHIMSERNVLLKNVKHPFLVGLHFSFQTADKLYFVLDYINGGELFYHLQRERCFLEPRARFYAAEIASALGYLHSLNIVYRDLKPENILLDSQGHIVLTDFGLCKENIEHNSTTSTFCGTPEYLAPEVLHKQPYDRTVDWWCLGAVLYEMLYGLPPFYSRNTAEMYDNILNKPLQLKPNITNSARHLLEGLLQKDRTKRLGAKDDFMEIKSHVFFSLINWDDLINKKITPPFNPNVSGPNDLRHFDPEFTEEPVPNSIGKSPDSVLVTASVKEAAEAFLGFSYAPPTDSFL

`N#CCOc1ccc(Nc2nc(Nc3cccc(S(N)(=O)=O)c3)ncc2Br)cc1`: the Ki came out at 0.398 µM.

`CC(C)(CO)CNc1nccc(-c2c(-c3ccc(F)cc3)nc3cnccn23)n1` returned a Ki greater than 10 µM.

`CN(C)CCCOc1cc2c(c(-c3ccc(Nc4nc5ccccc5o4)cc3)c1)CNC2=O` returned a Ki greater than 10 µM.

Consider `N[C@H](COc1cncc(-c2ccc3[nH]c(=O)oc3c2)c1)Cc1c[nH]c2ccccc12`, for which the Ki was determined as 5.01 µM.

`c1cnc2nc(-c3ccc4[nH]ncc4c3)c(NC3CCCCC3)n2c1`: the Ki stood at 2.51 µM.

In turn, `C/C(=N/NC(=N)N)c1cc(NC(=O)c2cccc(C(=O)Nc3cc(/C(C)=N\NC(=N)N)cc(/C(C)=N/NC(=N)N)c3)c2)cc(/C(C)=N/NC(=N)N)c1` had a Ki of 1.26 µM.

Turning to `CCCC(=O)Nc1n[nH]c2nc3ccccc3cc12`, the Ki is greater than 10 µM.

As for `CC(=O)N(c1ccncc1)c1c(N[C@H](C)C(C)(C)C)c(=O)c1=O`, the Ki is greater than 10 µM.

Consider `O=C(Nc1ccc2[nH]ncc2c1)c1cccc(F)c1`, for which the Ki is greater than 10 µM.

Compound `Cc1nccn2c(-c3ccnc(NCCC(C)(C)O)n3)c(-c3ccc(F)cc3F)nc12` registered an inhibition constant (Ki) greater than 10 µM.

Compound `CN(c1ccccc1CNc1nc(N)nc2[nH]ccc12)S(C)(=O)=O` displayed a Ki greater than 10 µM.

Regarding `COc1cccc(NC(=O)c2cnn3c(-c4ccccc4)ccnc23)c1`, the Ki is greater than 10 µM.

Compound `CCN1CCN(c2ccc(Nc3nccc(-c4c(-c5cccc(C(=O)Nc6ccccc6F)c5)nc5ccccn45)n3)cc2)CC1` yielded a Ki of 6.31 µM.

Turning to `CCc1cccc(NC(=O)Nc2ccc3c(c2)CCc2sc4ncnc(N)c4c2-3)c1`, the Ki was greater than 10 µM.

In turn, `O=c1c(NCCc2ccc(Oc3ccccc3)cc2)c(Nc2ccncc2)c1=O` had a Ki greater than 10 µM.

Consider `O=C(Cc1ccccc1)Nc1cccc(-c2nc3sccn3c2-c2ccnc(Nc3cccc(N4CCCC4=O)c3)n2)c1`, for which the Ki is greater than 10 µM.

Consider `COc1ccc(/C=N/Nc2ncnc3c2[nH]c2ccccc23)cc1OC`, for which the Ki is greater than 10 µM.

With `CCC(N)(C#Cc1cnc(N)c2c(-c3ccc(NC(=O)Nc4cccc(C)c4)cc3)csc12)CC`, the Ki is 3.98 µM.

As for `CC(C)(O)Cc1nnc2ccc(-c3c(-c4ccc(F)cc4F)nc4occn34)nn12`, the Ki was greater than 10 µM.

`O=C(Nc1n[nH]c2ccc(-c3cn(Cc4ccccc4)nn3)cc12)c1cccc(F)c1` had a Ki of 0.1 µM.

As to `O=C(Nc1cnc2[nH]cc(-c3ccccc3)c2c1)c1cccc(F)c1F`, the Ki turned out to be 7.94 µM.

`Cc1ccccc1NC(=O)Nc1ccc(-c2coc3ncnc(N)c23)cc1` showed a Ki of 2.51 µM.

As for `O=C1Nc2ccc3ncsc3c2/C1=C/Nc1ccc(S(=O)(=O)Nc2ccccn2)cc1`, the inhibition constant (Ki) was found to be 0.0158 µM.

With `Cc1cccc(NC(=O)Nc2ccc(-c3ccc4nccnc4c3N)cc2)c1`, the Ki was greater than 10 µM.

For the compound `O=c1[nH]c2sc3c(c2c2nc(-c4ccccc4)nn12)CCCC3`, the Ki was greater than 10 µM.

In turn, `CN1CCN(Cc2ccc3c(c2)Cc2c(-c4csc(C#CCOCC5CC5)c4)n[nH]c2-3)CC1` returned a Ki greater than 10 µM.

With `Nc1nccc2scc(-c3ccc(NC(=O)Nc4cccc(Cl)c4)cc3)c12`, the Ki is greater than 10 µM.

Turning to `CC(C)(C)c1ccc2nc(-c3n[nH]c4ccccc34)[nH]c2c1`, the Ki turned out to be 1.26 µM.

As to `Nc1ncnc2onc(-c3ccc(NC(=O)Nc4cccc(C(F)(F)F)c4)cc3)c12`, the Ki is greater than 10 µM.

The compound `CC(C)(CO)c1nnc2ccc(-c3c(-c4ccc(F)cc4F)nc4n3CCC4)nn12` registered a Ki greater than 10 µM.

Regarding `Cn1c(=O)c(Oc2ccc(F)cc2F)cc2cnc(NC3CCOCC3)nc21`, the Ki is greater than 10 µM.

With `CN(C)CCCC(=O)Nc1n[nH]c2nnc(-c3cccc(F)c3F)cc12`, the inhibition constant Ki was greater than 10 µM.

For `Nc1c(-c2ccccc2)c2cc(Cl)ccc2[nH]c1=O`, the Ki is greater than 10 µM.

Regarding `Nc1ncnc2scc(C(=O)Nc3ccc(NC(=O)Nc4ccccc4)cc3)c12`, the Ki was greater than 10 µM.

`Cc1ccc2c(c1)NC(=O)c1ccccc1N2` gave a Ki greater than 10 µM.

Compound `COc1cc2c(Oc3ccc4[nH]c(C)cc4c3F)ncnc2cc1OCCCN1CCCC1` yielded a Ki greater than 10 µM.

Take `c1ccc(CSc2nc(-c3ccncc3)n[nH]2)cc1`: the Ki worked out at 7.94 µM.

As for `NC(=O)c1cccc2[nH]c(-c3cccc(NCCN4CCCC4)n3)nc12`, the Ki was greater than 10 µM.

Consider `CS(=O)(=O)Nc1ccc(-c2ccc3[nH]nc(N)c3c2)cc1`, for which the Ki amounted to 0.631 µM.

Turning to `C/C(=N/NC(=N)N)c1cc(NC(=O)NCCCCCCNC(=O)Nc2cc(/C(C)=N\NC(=N)N)cc(/C(C)=N/NC(=N)N)c2)cc(/C(C)=N/NC(=N)N)c1`, the inhibition constant Ki came out at 3.16 µM.

Turning to `O=C1Nc2cc(CCOc3ccc(N4CCOCC4)cc3)ccc2Nc2cc(-c3cn(Cc4cc(F)c(F)c(F)c4)c4cnccc34)ccc21`, the Ki is greater than 10 µM.

Compound `N#Cc1ccc2[nH]c(O)c(-c3ccc(CN4CCOCC4)cn3)c2c1` had a Ki of 3.16 µM.

The compound `O=C1NCCc2[nH]c(-c3ccnc(/C=C/c4ccccc4)c3)cc21` displayed a Ki of 1 µM.

Compound `O=C(Nc1cnc2[nH]cc(-c3ccccc3)c2c1)c1c(F)cccc1F` displayed a Ki of 0.631 µM.

`N#Cc1ccc(-c2n[nH]c3c2Cc2ccc(OCCCCN4CCOCC4)cc2-3)cn1` had a Ki greater than 10 µM.

As to `CCOc1nc(C(=O)NCc2ccc(S(N)(=O)=O)cc2)cc(N)c1C#N`, the Ki is greater than 10 µM.

`Cc1cccc(NC(=O)Nc2ccc(-c3csc4c(C#CCN(C)C)cnc(N)c34)cc2)c1` came in with an inhibition constant (Ki) of 6.31 µM.

For `COc1cccc([C@@H](C)NC(=O)c2ccc(-c3ccncn3)cc2)c1`, the Ki worked out at 0.631 µM.

For `O=C1Cc2c([nH]c3ccc(Br)cc23)-c2ccccc2N1`, the Ki was greater than 10 µM.

In the case of `Cc1ccc(C(=O)Nc2c(C#N)sc3ccc(Cl)c(Cl)c23)cc1`, the Ki is greater than 10 µM.

For the compound `O=C(c1cc(-c2ccc3[nH]ncc3c2)on1)N1CCCCC1`, the Ki is greater than 10 µM.

`Fc1ccc(-c2nc3cnccn3c2-c2ccnc(NCC3CC3)n2)cc1` had a Ki greater than 10 µM.

For the compound `CC(C)NC(=O)COc1cccc(-c2nc(Nc3ccc4[nH]ncc4c3)c3ccccc3n2)c1`, the Ki was greater than 10 µM.

`Cc1cccc(NC(=O)Nc2ccc(-c3noc4ncnc(N)c34)cc2)c1` had a Ki greater than 10 µM.

`Fc1ccc(-c2nc3occn3c2-c2ccnc(NC3CCNCC3)n2)cc1` registered a Ki greater than 10 µM.

As to `O=C(O)c1ccc(N2C(=O)c3ccccc3C2=O)cc1O`, the Ki was greater than 10 µM.

`Cc1cc(C)c2c(n1)sc1c(N)ncnc12` had a Ki of 3.16 µM.

Turning to `O=c1nc(-c2ccc3[nH]ncc3c2)cc(-c2ccccc2)[nH]1`, the Ki worked out at 2 µM.

In turn, `COc1cccc(CNC(=O)c2cc3c(-c4ccccc4)n[nH]c3s2)c1` yielded a Ki of 0.794 µM.

As for `Cc1cccc(NC(=O)Nc2ccc3c(c2)CCc2sc4ncnc(N)c4c2-3)c1`, the Ki is greater than 10 µM.

`NC(=O)c1cn(-c2ccc(O)cc2Cl)c2cc(-c3ccncc3)ccc2c1=O`: the Ki was 7.94 µM.

For the compound `N[C@H](COc1cncc(/C=C/c2ccncc2)c1)Cc1c[nH]c2ccccc12`, the Ki was 7.94 µM.

For `CN(C)CC(=O)N[C@H](COc1cncc(-c2ccc3cnccc3c2)c1)Cc1c[nH]c2ccccc12`, the Ki was found to be 7.94 µM.

As for `CCNC(=O)c1cnc(N)c2c(-c3ccc(NC(=O)Nc4cccc(F)c4)cc3)csc12`, the Ki was greater than 10 µM.

Consider `CS(=O)(=O)N(Cc1ccc2[nH]c(=O)c3cccn3c2c1)C1CC1`, for which the Ki is greater than 10 µM.

Compound `O=c1cc(-c2ccncc2)nc(NC2CCCCC2)[nH]1` yielded an inhibitory constant (Ki) greater than 10 µM.

As to `COc1ccc(C(=O)Nc2n[nH]c3ccc(-c4cn(Cc5ccccc5)nn4)cc23)cc1OC`, the Ki came out at 1 µM.

As to `c1cc2[nH]ncc2cc1-c1cn(CC2CCOCC2)nn1`, the Ki is 7.94 µM.

In the case of `C[C@@H](N)C1CCC(C(=O)Nc2ccnc3[nH]ccc23)CC1` (stereo partly drawn), the Ki was greater than 10 µM.

`Cc1nccn2c(-c3ccnc(NCC(C)(C)C(=O)O)n3)c(-c3ccc(F)cc3F)nc12` registered a Ki greater than 10 µM.

The compound `CCCn1c(C2CCNCC2)nc(-c2ccc(Cl)c(Cl)c2)c1-c1ccnc(NC2CCCCC2)n1` registered a Ki of 3.16 µM.

For `Cc1cccc(NC(=O)Nc2ccc(-c3csc4ccnc(N)c34)cc2)c1`, the Ki is greater than 10 µM.

For the compound `COc1ccc(CNC(=O)Nc2ncc([N+](=O)[O-])s2)cc1`, the Ki is greater than 10 µM.

On to `CC(C)S(=O)(=O)n1c(N)nc2ccc(-c3c(-c4ccc(F)cc4)nc4sccn34)cc21`, for which the Ki was greater than 10 µM.

`Fc1ccc(-c2nc3sccn3c2-c2ccncc2)cc1` came in with a Ki greater than 10 µM.

As to `O=c1[nH]c2ccc(Cl)cc2c(-c2ccccc2)c1C1=NNC(c2ccccc2)C1` (stereo not drawn), the Ki was greater than 10 µM.

Compound `C[C@H](Nc1nccc(-c2c(-c3ccc(F)cc3)nc3occn23)n1)c1ccccc1` had a Ki greater than 10 µM.

For `CCOC(=O)C1=c2s/c(=C/c3ccco3)c(=O)n2C(N)=C(C#N)C1c1ccco1` (stereo not drawn), the Ki was greater than 10 µM.

Compound `CCCC(=O)Nc1nn(C(=O)CC)c2nc3ccccc3cc12` showed a Ki greater than 10 µM.

For `COc1ccc(OC)c(NC(=O)c2cnn3c(-c4ccccc4)ccnc23)c1`, the Ki was greater than 10 µM.

`CC(C)N(C)C(=O)c1c(-c2ccc3[nH]ncc3c2)nnn1Cc1ccccc1` gave a Ki of 0.631 µM.

As for `O=C1Cc2c([nH]c3ccc(Br)cc23)-c2ncccc2N1`, the Ki is greater than 10 µM.

`O=C(Nc1cccc(C(F)(F)F)n1)Nc1ccnc2c(C(F)(F)F)cccc12`: the Ki is greater than 10 µM.

Take `COc1ccc(Nc2nccc(Nc3c(N[C@H](C)C(C)(C)C)c(=O)c3=O)n2)cc1OC`: the Ki was found to be 2 µM.

On to `COc1ccc(-c2cc3nccn3c(Nc3ncccc3C(N)=O)n2)cc1OC`, for which the inhibition constant (Ki) was greater than 10 µM.

`Cc1cc(C)cc(NC(=O)Nc2ccc(-c3cccc4c3CNC4=O)c(C(F)(F)F)c2)c1` registered a Ki greater than 10 µM.

In turn, `CC[C@H](CO)Nc1nc(NCc2ccccc2)c2ncn(C(C)C)c2n1` displayed a Ki greater than 10 µM.

For `CC(C)=C(C)c1cccc2c(CCCOc3cccc(Cl)c3Cl)c(C(=O)O)[nH]c12`, the Ki is greater than 10 µM.

Take `COc1nccc(-c2c(-c3ccc(F)cc3)ncn2C2CCNCC2)n1`: the Ki was greater than 10 µM.

The compound `COc1cc(-c2ccc3c(c2)Nc2ccc(CCOc4ccc(N5CCOCC5)cc4)cc2NC3=O)ccc1CC#N` showed a Ki greater than 10 µM.

Consider `O=C(NCc1ccccc1)c1cccc(-c2cnc3[nH]ccc3c2)c1`, for which the Ki was greater than 10 µM.

In the case of `CCc1nc2c(c3cc(OC)c(OC)cc13)C(=O)NC2=O`, the Ki is greater than 10 µM.

`CN(C)C(=O)Nc1ccc2nc(-c3ccco3)c(-c3ccco3)nc2c1`: the Ki was greater than 10 µM.

As a reminder, the Ki is a dissociation constant, usually derived from enzyme kinetics or from competition with a known ligand.
